Laboratory results: patent US6800481B1, “Stable macroscopic membranes formed by self-assembly of amphiphilic peptides and uses therefor” (priority 1992, dated 2004)
Read-outs that look alike come from different tables or passages of the source. Residues, ends and D or L forms follow the SMILES beside them.

Assays:
[1] = Testing of peptides for macroscopic membrane formation (phase-contrast microscope, Congo Red staining); assay type: physicochemical
Source text: The effect of length and sequence on membrane formation was examined using several peptides (Table 1 and Example 3). […] Very long peptides, e.g., of about 200 amino acids, may encounter problems due to insolubility and intramolecular interactions which destabilize membrane formation. […] The optimal lengths for membrane formation will probably vary with the amino acid composition.
The EAK12 and EAK16 tested for membrane formation were acetylated and aminylated at both N- and C-terminal ends. […] The peptides were initially dissolved in water (5 mg/ml) or in 23% acetonitrile (10 mg/ml). A volume of 5-10 microliters of the dissolved peptides were applied to the DMEM medium, PBS or water. The formation of the membrane was first observed under a phase-contrast microscope and then, by the naked eye after staining with Congo Red.

[2] = assay type: physicochemical; conditions: for [θ2] λ2 195 nm / −[θ1] λ1 218 nm: 8 μM in water
Method: Circular dichroism (CD) spectra were taken on an Aviv Model 60DS spectropolarimeter using program 60HDS for data processing. Because EAK16 contains both positively and negatively charged residues, the peptide itself can serve as a buffer. CD samples were prepared and measured at 25° C., unless otherwise indicated. All reagents were ultrapure and solutions were filtered through a […] before use. Circular dichroism (CD) spectroscopy was used to monitor the stability of the β-sheet structure of EAK16 under various conditions. Dilute […] concentrations. […] A 3 mM stock EAK16 solution was mixed in water to a concentration of 20 μM, allowed to equilibrate, and the CD spectrum measured. The solution was then diluted five times by two-fold serial dilutions to final concentrations of […], 10, 5.0, 2.5, 1.25 and 0.625 μM, allowed to equilibrate and CD spectra taken. […] Temperature. The CD spectra of 8 μM EAK16 at 25, 37, 55, 70 and 90° C. in water were measured. […] EAK16 has a calculated pI Of 6.71. It was assumed that changes of pH would have a great effect on the β-sheet structure, especially when the charged groups are neutralized. […] The 3 mM stock solution of EAK16 was mixed with pH buffers at pH 1.5, 3, 7, and 11 to a final concentration of 10 μM and allowed to equilibrate for 4 hours before taking CD measurements. […] Chemical denaturants. […] The peptide (3 mM stock) was mixed with water or different concentrations of guanidine-HCl or urea and allowed to incubate overnight before taking CD measurements. SDS was added to a peptide solution to a final concentration of 0.1% and incubated for 30 minutes.

[3] = tested on: nerve growth factor-differentiated rat PC12 cells; assay type: cell-based
Source text: The membranes also appear to be non-cytotoxic. The EAK16 peptide formed macroscopic membranes when added to a tissue culture of nerve growth factor-differentiated rat PC12 cells.

[4] = tested on: 3T3 fibroblast cells; assay: Cell attachment to biopolymer sheets, with serum or serum-free + cyclohexamide (Table 5); assay type: cell-based, mouse; design: key: ++++: strong attachment; +++: moderate attachment; ++: weak attachment; +/−: little or no attachment
Method: 3T3 fibroblast cells were introduced to membranes of RAD16 and EAK16 in normal serum-containing medium or in serum-free medium containing 30 μg/ml cyclohexamide (cells used for this condition were pretreated in this medium for 2 hours before plating). Cells were allowed to attach to the membranes for 30 minutes, 1 and 8 hours at 37° C. The attached cells were shaken for 10 minutes on a rotary rocker at 60 r.p.m., then scored under phase contrast microscopy. The decrease in cells attached to the membrane in the serum-free condition reflects cell loss due to serum deprivation.

[5] = Ions tested for effectiveness at inducing membrane formation; conditions of membrane formation; assay type: physicochemical
Method: Various metal cations were tested for effectiveness at inducing membrane formation from EAK16. […] The order of effectiveness of the monovalent cations appears to be Li^+>Na^+>K^+>Cs^+. Cs^+ produces the least amount of membranes and in addition, yields nonmembranous precipitates. The effectiveness of the monovalent cations appears to correlate inversely with the crystal radii of the ions: Li^+ (0.6 Å), Na^+ (0.95 Å), K^+ (1.33 Å), and Cs^+ (1.69 Å) (Pauling, 1960). A correlation is also seen with the hydrated radii of the ions: Li^+ (3.4 Å), Na^+ (2.76 Å), K^+ (2.32 Å), and Cs^+ (2.28 Å), and with the order of enthalpies of the monovalent cations (Pauling, 1960). It is not known at present if the monovalent metal cations act as a catalyst or if they are incorporated into the membrane. […] Thus, membrane formation appears to be independent of salt concentration over this wide range. Salt concentrations of less than 5 mM may also induce membrane formation, but at a slower rate. The initial concentration of the peptide is a significant factor in the size and thickness of the membrane formed. In general, the higher the peptide concentration, the higher the extent of membrane formation. Membranes can form from initial peptide concentrations as low as 0.5 mM or 1 mg/ml. However, membranes formed at higher initial peptide concentrations (about 10 mg/ml) are thicker and thus, likely to be stronger. Therefore, it is preferable when producing the membranes to add peptide to a salt solution, rather than to add salt to a peptide solution. Formation of the membranes is very fast, on the order of a few minutes, and seems to be irreversible (see below). The process is unaffected by pH≦12 (the peptides tend to precipitate out at pH above 12), and by temperature. The membranes can form at temperatures in the range of 4 to 90° C. Formation of the membranes is inhibited by the presence of divalent metal cations at concentrations equal to or greater than 100 μM, which promote unstructured aggregation rather than membrane formation, and by sodium dodecyl sulfate (SDS) at a concentration of at least 0.1%.

formation of macroscopic membranes ([1]; identical conditions, in words): could undergo self-assembly
membranous structure in Water ([1]; water): −
CD spectra over temperature ([2]; 25, 37, 55, 70 and 90° C.): unaffected over the range of 25-90 °C
Ratio [θ2]/[θ1] ([2]; 25 ° C.): 3.9
[θ2] λ2 195 nm ([2]; 25 ° C.): 62 X1,000
−[θ1] λ1 218 nm ([2]; 25 ° C.): 16 X1,000
Ratio [θ2]/[θ1] ([2]; 37 ° C.): 4.0
[θ2] λ2 195 nm ([2]; 37 ° C.): 60 X1,000
−[θ1] λ1 218 nm ([2]; 37 ° C.): 15 X1,000
Ratio [θ2]/[θ1] ([2]; 55 ° C.): 3.9
[θ2] λ2 195 nm ([2]; 55 ° C.): 55 X1,000
−[θ1] λ1 218 nm ([2]; 55 ° C.): 14 X1,000
Ratio [θ2]/[θ1] ([2]; 70 ° C.): 4.1
[θ2] λ2 195 nm ([2]; 70 ° C.): 54 X1,000
−[θ1] λ1 218 nm ([2]; 70 ° C.): 13 X1,000
Ratio [θ2]/[θ1] ([2]; 90 ° C.): 4.0
[θ2] λ2 195 nm ([2]; 90 ° C.): 50 X1,000
−[θ1] λ1 218 nm ([2]; 90 ° C.): 12.5 X1,000
β-sheet structure in chemical denaturants (CD spectra) ([2]; SDS at 90° C., 1-7 M guanidine-HCl or 8 M urea at room temperature for over 16 hours): not significantly affected
decrease of mean residue ellipticity (−[θ]218 nm), thermal profile ([2]; over 25-90° C.): 22%
ratios of ellipticity at 194 nm/217 nm ([2]; over the temperature range of 25-90° C.): approximately 4.0
decrease of ellipticity (−[θ]218 nm), pH profile ([2]; pH 1.5 to 3, 7 and 11): less than 10%
order of effectiveness of the monovalent cations [5]: Li^+>Na^+>K^+>Cs^+
effect of anions and organic ions on membrane formation ([5]; acetate, Cl^−, SO4^−2, PO4^−2, NH4^+ and Tris-Cl): not found to induce membrane formation
Structure (SMILES): CC(=O)N[C@@H](C)C(=O)N[C@@H](CCC(=O)O)C(=O)N[C@@H](C)C(=O)N[C@@H](CCC(=O)O)C(=O)N[C@@H](C)C(=O)N[C@@H](CCCCN)C(=O)N[C@@H](C)C(=O)N[C@@H](CCCCN)C(=O)N[C@@H](C)C(=O)N[C@@H](CCC(=O)O)C(=O)N[C@@H](C)C(=O)N[C@@H](CCC(=O)O)C(=O)N[C@@H](C)C(=O)N[C@@H](CCCCN)C(=O)N[C@@H](C)C(=O)N[C@@H](CCCCN)C(N)=O [EAK16] (Ac-AEAEAKAKAEAEAKAK-NH2)
β-sheet structure on dilution of the peptide ([2]; 0.625 to 20 μM in water): not significantly affected by dilution of the peptide
effect on appearance or rate of growth of the cells [3]: did not affect the appearance or rate of growth of the cells
cell attachment ([4]; 3T3, 30 min, medium with serum, no cyclohexamide): ++++
cell attachment ([4]; 3T3, 30 min, serum-free medium, + cyclohexamide): ++++
cell attachment ([4]; 3T3, 60 min, medium with serum, no cyclohexamide): ++++
cell attachment ([4]; 3T3, 60 min, serum-free medium, + cyclohexamide): ++++
cell attachment ([4]; 3T3, 8 hrs, medium with serum, no cyclohexamide): ++++
cell attachment ([4]; 3T3, 8 hrs, serum-free medium, + cyclohexamide): ++
effect of divalent cations on membrane formation [5]: divalent cations primarily induce unstructured aggregates
effect of monovalent metal cations on membrane formation [5]: monovalent metal cations induce membrane formation
